# Key:
# [1] = Mouse pharmacokinetics (plasma, LC-MS/MS); type: in vivo, C57BL/6J mice; details: male, C57BL/6J, ip, single intraperitoneal injection of 40 mg/kg
# Method: We employed liquid chromatography and tandem mass spectrometry (LC-MS/MS) to quantify the plasma concentration of 32-134D over 24 hours following a single intraperitoneal injection of 40 mg/kg (Figure 9). The maximum plasma concentration (Cmax) of 20 μM occurred at 4 hours with a biexponential decline. […] Further studies are required to determine whether steady-state levels are achieved with daily administration.
# Figure 9 Concentration-time profiles of 32-134D in mice (n = 3 per time point) treated with a single dose of 32-134D. Plasma was obtained over 24 hours, with 32-134D concentrations determined by LC-MS/MS. […] Data points and error bars represent mean and SD of 3 replicates, respectively.
# Male C57BL/6J mice were administered 32-134D at 40 mg/kg as a single intraperitoneal injection. Mice (n = 3 per time point) were euthanized at 0.5, 1, 2, 4, 8, 16, and 24 hours after injection. Compound 32-134D was quantified in plasma by LC-MS/MS (see Supplemental Methods). Pharmacokinetic parameters were calculated from mean concentration-time data using noncompartmental methods in Phoenix WinNonlin version 8.3 (Certara). The Cmax and time to Cmax (tmax) were the observed values. The AUClast was calculated using the log-linear trapezoidal method. AUC was extrapolated to infinity (AUCINF) by dividing the last quantifiable concentration by the terminal disposition rate constant (λz). The λz was determined from at least 3 points on the slope of the terminal phase of the concentration-time profile. The t1/2 was determined by dividing 0.693 by λz. Cl/F was calculated by dividing the dose administered by AUCINF. V/F was calculated by dividing Cl/F by λz. If the percentage AUC extrapolated was greater than 20% or the r^2 of λz was less than 0.85, the AUCINF, Cl/F, t1/2, and V/F were not reported.
# [2] = tested on: hypoxia-induced genes in Hep3B cells; assay: RNA sequencing of Hep3B cells; type: cell-based, human; details: 5 μM, 1% O2, 24 hours
# Method: RNA sequencing (RNA-seq) was performed on 3 biological replicates of Hep3B cells exposed for 24 hours to vehicle at 20% O2, vehicle at 1% O2, or 5 μM 32-134D at 1% O2. […] Overall, 32-134D inhibited the expression of 4,689 genes, of which the 3,326 hypoxia-induced genes represented 71% of the total.
# RNA was extracted using TRIzol Reagent. Quantitative real-time PCR was conducted using SYBR Green PCR Master Mix and reactions were run using a Bio-Rad thermal cycler. Primer sequences and reagent sources are listed in Supplemental Table 5. The mRNA expression of target genes was normalized to the expression of 18S rRNA and the fold change (FC) was calculated based on the threshold cycle (Ct) as FC = 2^–Δ(ΔCt), where ΔCt = Cttarget gene – Ct18S rRNA and Δ(ΔCt) = ΔCttreatment – ΔCtcontrol. For RNA-seq, total RNA was isolated and treated with DNase (Qiagen). […] An automated data analysis pipeline run in the Genialis platform consisted of the following: Sequence quality checks were performed on raw and trimmed reads with FastQC. Bbduk was used to trim adapters and filter out poor quality reads. Trimmed reads were then mapped to the STAR index (ENSEMBL 100) reference genome using the STAR ([93]) aligner. Gene expression levels were quantified with featureCounts ([94]), and differential gene expression analyses were performed with DESeq2 ([95]). […]
# [3] = tested on: Hepa1-6 HCC tumors; assay: Hepa1-6 tumor growth and eradication in syngeneic C57L mice; type: in vivo
# Method: To test whether 32-134D inhibits HCC growth in an immunocompetent mouse model, we injected Hepa1-6 HCC cells into the flank of syngeneic C57L mice ([54]). When tumors became palpable (treatment day 1), mice received intraperitoneal injections of 32-134D (40 mg/kg/day) versus vehicle control, or anti-PD1 antibody versus IgG2a isotype control (200 μg on days 1, 4, 7, 10, 13, and 16), or both 32-134D and anti-PD1. Tumors grew very rapidly in all mice treated with vehicle or IgG2a, necessitating euthanasia on or before day 24 (Figure 4, A and C). Tumors regressed in 5 out of 12 mice treated with anti-PD1, but 2 tumors recurred after the last antibody treatment (on day 16) for a tumor eradication rate of only 25% (Figure 4D). […] Thus, addition of 32-134D increased the percentage of mice with a complete response to anti-PD1 immune checkpoint blockade from 25% to 67% (Figure 4F).
# Figure 4 Effect of anti-PD1 and 32-134D on Hepa1-6 tumor growth in syngeneic mice. […]
# Female nude mice (NCI Athymic NCr-nu/nu) and male C57L mice were purchased from Charles River and The Jackson Laboratory, respectively. Hep3B (8 × 10^6) and Hepa1-6 (1 × 10^7) cells were resuspended in PBS and Matrigel (1:1, vol/vol) and implanted subcutaneously in 6- to 8-week-old mice, and tumor volume was calculated as V = abc × 0.52. […]
structure (smiles),measurement,setting,value
Brc1ccc2c(-c3csc(-c4c[nH]c5c(Br)cccc45)n3)c[nH]c2c1 [Compound 32-134D],CL/F,[1]; read-out: apparent clearance (Cl/F),14.5 mL/min/kg
same,Vd/F,[1]; read-out: apparent volume of distribution (V/F),6.1 L/kg
same,AUC(0-inf),[1]; read-out: area under the curve extrapolated to infinity (AUCINF),96.7 µM·h
same,Cmax,[1]; read-out: maximum plasma concentration (Cmax),20 µM
same,half-life,[1]; read-out: terminal half-life (t1/2) (converted),4.1 h
same,total number of genes whose expression was inhibited,[2],"4,689 genes"
same,number of hypoxia-induced genes whose expression was inhibited,"[2]; of 3,849 hypoxia-induced mRNAs","3,326 genes"
same,tumor growth,[3]; 40 mg/kg/day ip,inhibition of tumor growth in all mice
same,mice with tumor eradication,[3]; 12 mice per group,4 of 12
